Reference: ChEMBL document CHEMBL4376853, “Synthesis and structure-activity relationship studies of α-naphthoflavone derivatives as CYP1B1 inhibitors” (Eur J Med Chem, 2020)

Key:
[1] = organism: Homo sapiens; experiment: Selectivity index, ratio of IC50 for human recombinant CYP1A2 to IC50 for human recombinant CYP1B1 using 7-ethoxyresorufin as substrate in presence of glucose-6-phosphate, glucose-6-phosphate dehydrogenase and NADPH-generating system by fluorometry
[2] = organism: Homo sapiens; experiment: Selectivity index, ratio of IC50 for human recombinant CYP1A1 to IC50 for human recombinant CYP1B1 using 7-ethoxyresorufin as substrate in presence of glucose-6-phosphate, glucose-6-phosphate dehydrogenase and NADPH-generating system by fluorometry
[3] = target: T1, Cytochrome P450 1A2 (Homo sapiens, UniProt P05177); experiment: Inhibition of human recombinant CYP1A2 using 7-ethoxyresorufin as substrate in presence of glucose-6-phosphate, glucose-6-phosphate dehydrogenase and NADPH-generating system incubated for 50 mins by fluorometry; assay type: ADME
T1 sequence (P05177 whole entry): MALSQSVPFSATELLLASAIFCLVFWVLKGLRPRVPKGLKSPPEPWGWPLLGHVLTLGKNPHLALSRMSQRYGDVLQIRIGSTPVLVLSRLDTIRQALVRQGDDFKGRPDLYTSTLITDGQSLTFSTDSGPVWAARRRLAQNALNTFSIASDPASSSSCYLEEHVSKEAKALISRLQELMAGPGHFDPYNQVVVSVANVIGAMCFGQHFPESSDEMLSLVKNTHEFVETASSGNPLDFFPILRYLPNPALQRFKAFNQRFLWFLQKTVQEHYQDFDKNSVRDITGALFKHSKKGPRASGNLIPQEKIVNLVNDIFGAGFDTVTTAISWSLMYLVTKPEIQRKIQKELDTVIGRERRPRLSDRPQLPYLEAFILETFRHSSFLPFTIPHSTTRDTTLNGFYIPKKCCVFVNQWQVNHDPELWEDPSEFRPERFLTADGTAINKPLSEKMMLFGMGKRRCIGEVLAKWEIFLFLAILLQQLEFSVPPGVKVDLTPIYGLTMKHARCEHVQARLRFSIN

[4] = target: T2, Cytochrome P450 1B1 (Homo sapiens, UniProt Q16678); experiment: Inhibition of human recombinant CYP1B1 using 7-ethoxyresorufin as substrate in presence of glucose-6-phosphate, glucose-6-phosphate dehydrogenase and NADPH-generating system incubated for 35 mins by fluorometry
T2 sequence (Q16678 whole entry): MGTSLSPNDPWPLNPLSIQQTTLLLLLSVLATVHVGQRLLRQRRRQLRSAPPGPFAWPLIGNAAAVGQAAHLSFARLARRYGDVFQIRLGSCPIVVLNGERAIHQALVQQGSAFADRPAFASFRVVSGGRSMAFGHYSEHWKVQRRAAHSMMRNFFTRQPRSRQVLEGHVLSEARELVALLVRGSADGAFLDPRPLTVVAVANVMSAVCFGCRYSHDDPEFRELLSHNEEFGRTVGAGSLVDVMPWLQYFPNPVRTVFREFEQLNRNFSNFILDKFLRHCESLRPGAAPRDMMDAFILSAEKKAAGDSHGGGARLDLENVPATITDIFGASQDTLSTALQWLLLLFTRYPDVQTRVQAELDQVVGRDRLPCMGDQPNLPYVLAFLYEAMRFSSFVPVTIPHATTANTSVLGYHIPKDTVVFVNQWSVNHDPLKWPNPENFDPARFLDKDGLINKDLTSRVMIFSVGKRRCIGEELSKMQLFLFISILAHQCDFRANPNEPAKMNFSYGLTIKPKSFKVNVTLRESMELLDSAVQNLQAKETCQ

[5] = target: T3, Cytochrome P450 1A1 (Homo sapiens, UniProt P04798); experiment: Inhibition of human recombinant CYP1A1 using 7-ethoxyresorufin as substrate in presence of glucose-6-phosphate, glucose-6-phosphate dehydrogenase and NADPH-generating system incubated for 15 mins by fluorometry; assay type: ADME
T3 sequence (P04798 whole entry): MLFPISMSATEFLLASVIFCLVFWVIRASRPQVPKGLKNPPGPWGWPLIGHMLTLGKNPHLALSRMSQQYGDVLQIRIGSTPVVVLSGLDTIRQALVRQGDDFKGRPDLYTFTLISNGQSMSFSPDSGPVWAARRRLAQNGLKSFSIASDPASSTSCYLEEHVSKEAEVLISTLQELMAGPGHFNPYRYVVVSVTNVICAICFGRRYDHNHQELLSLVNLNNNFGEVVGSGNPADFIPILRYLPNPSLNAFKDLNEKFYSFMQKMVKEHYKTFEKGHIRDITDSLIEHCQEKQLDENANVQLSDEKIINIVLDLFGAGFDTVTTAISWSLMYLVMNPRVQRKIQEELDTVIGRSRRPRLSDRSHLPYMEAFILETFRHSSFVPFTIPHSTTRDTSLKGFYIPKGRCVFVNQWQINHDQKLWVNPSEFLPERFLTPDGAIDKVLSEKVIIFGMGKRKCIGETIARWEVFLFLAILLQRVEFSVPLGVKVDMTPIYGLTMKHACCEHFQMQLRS

[6] = target: T2, Cytochrome P450 1B1; experiment: Potency index, ratio of IC50 for ANF to IC50 for test compound for inhibition of human recombinant CYP1B1 using 7-ethoxyresorufin as substrate in presence of glucose-6-phosphate, glucose-6-phosphate dehydrogenase and NADPH-generating system incubated for 35 mins by fluorometry; conditions: read-out: Ratio IC50

Row | Structure (SMILES) | Ratio IC50 [1] | Ratio IC50 [2] | IC50 [3] [nM] | IC50 [4] [nM] | IC50 [5] [nM] | selectivity ratio at 35 min [6]
1 | S=c1cc(-c2ccccc2)oc2c1ccc1ccccc12 | 22.9 | 8.4 | 179 | 7.8 | 65.4 | 
2 | O/N=c1\cc(-c2cccc(Cl)c2)oc2c1ccc1ccccc12 | 77.3 | 9.1 | 804 | 10.4 | 94.9 | 
3 | Fc1cccc(-c2cc(=S)c3ccc4ccccc4c3o2)c1 | 26.8 | 5 | 134 | 5 | 25.1 | 
4 | S=c1cc(-c2cccc(Cl)c2)oc2c1ccc1ccccc12 | 32.4 | 3.4 | 304 | 9.4 | 31.7 | 
5 | O=c1cc(-c2ccccc2Cl)sc2c1ccc1ccccc12 | > 11.1 | 0.5 | > 1000 | 89.7 | 45.8 | 
6 | O=C1C=C(c2cccc(Cl)c2)S(=O)(=O)c2c1ccc1ccccc21 | 2.8 | > 4 | 699 | 250 | > 1000 | 
7 | O=c1cc(-c2ccc3ccccc3c2)oc2c1ccc1ccccc12 | > 20.7 | 1 | > 1000 | 48.4 | 46.4 | 
8 | O=c1cc(-c2cccc(Cl)c2)sc2c1ccc1ccccc12 | 7.3 | 0.3 | 296 | 40.5 | 13.6 | 
9 | COc1cc(Cl)cc(-c2cc(=O)c3ccc4ccccc4c3o2)c1 |  | 51.2 | > 1000 | 3.2 | 164 | 
10 | COc1cc(-c2cc(=O)c3ccc4ccccc4c3o2)cc(OC)c1OC | > 196 | 0.6 | > 1000 | 5.1 | 3 | 
11 | O=c1cc(-c2ccc(Cl)cc2)sc2c1ccc1ccccc12 | 4 | 0.2 | 212 | 51.9 | 9 | 
12 | Fc1ccccc1-c1cc(=S)c2ccc3ccccc3c2o1 | 4.9 | 3 | 51.8 | 10.6 | 31.9 | 
13 | O/N=c1\cc(-c2ccc(Cl)cc2)oc2c1ccc1ccccc12 | 9.4 | 5.6 | 75.2 | 8 | 44.4 | 
14 | O/N=c1\cc(-c2ccccc2)oc2c1ccc1ccccc12 | 23.3 | 10 | 74.6 | 3.2 | 32.1 | 
15 | CN1CCN(c2cc(Cl)cc(-c3cc(=O)c4ccc5ccccc5c4o3)c2)CC1 |  | 0.8 | > 1000 | 47.7 | 37.9 | 0.12
16 | O=c1cc(-c2ccccc2F)sc2c1ccc1ccccc12 | 5.6 | 0.8 | 582 | 104 | 84.6 | 
17 | COc1cc(-c2cc(=S)c3ccc4ccccc4c3o2)cc(OC)c1OC | > 53.2 | 1.5 | > 1000 | 18.8 | 28.2 | 
18 | O=c1cc(-c2cc(Cl)cc(Cl)c2)oc2c1ccc1ccccc12 | 37.4 | 6.1 | 157 | 4.2 | 25.5 | 
19 | COc1cccc(-c2cc(=S)c3ccc4ccccc4c3o2)c1 | 33.5 | 8 | 305 | 9.1 | 72.8 | 
20 | Fc1ccc(-c2cc(=S)c3ccc4ccccc4c3o2)cc1 | 3.2 | 0.9 | 42.8 | 13.3 | 12.3 | 
21 | CN1CCN(c2cccc(-c3cc(=O)c4ccc5ccccc5c4o3)c2)CC1 | 31 | 1.4 | 762 | 24.6 | 34.6 | 
22 | O=c1cc(-c2ccccc2)sc2c1ccc1ccccc12 | > 17.5 | 0.6 | > 1000 | 57 | 32.6 | 
23 | O=C1C=C(c2ccccc2)S(=O)(=O)c2c1ccc1ccccc21 | 0.8 | 0.6 | 170 | 223 | 129 | 

More lines, main results first:

Row | Ratio IC50 [1] | Ratio IC50 [2] | IC50 [3] [nM] | IC50 [4] [nM] | IC50 [5] [nM] | Structure (SMILES) | selectivity ratio at 35 min [6]
24 | 28.3 | 7.6 | 62.2 | 2.2 | 16.7 | O=c1cc(-c2cccc(F)c2)oc2c1ccc1ccccc12 | 
25 | 181 | 32.1 | 94.2 | 0.52 | 16.7 | O=c1cc(-c2cccc(C(F)(F)F)c2)oc2c1ccc1ccccc12 | 11.3
26 | 7.2 | 3.7 | 23.7 | 3.3 | 12.2 | O=c1cc(-c2ccccc2F)oc2c1ccc1ccccc12 | 
27 | 5.2 | 10.6 | 113 | 21.6 | 228 | O=c1cc(-c2ccccc2Cl)oc2c1ccc1ccccc12 | 
28 | 13.5 | 4.2 | 98.2 | 7.3 | 30.9 | COc1ccc(-c2cc(=O)c3ccc4ccccc4c3o2)cc1 | 
29 | 3.7 | 4.1 | 23.2 | 6.2 | 25.3 | O=c1cc(-c2cccnc2)oc2c1ccc1ccccc12 | 
30 | 2.5 | 1 | 10.6 | 4.2 | 4.3 | O=c1cc(-c2ccc(Cl)cc2)oc2c1ccc1ccccc12 | 
31 | 5.1 | 2.1 | 28.6 | 5.6 | 11.8 | O=c1cc(-c2ccc(F)c(F)c2)oc2c1ccc1ccccc12 | 
32 | 4.5 | 2.5 | 12.1 | 2.7 | 6.7 | O=c1cc(-c2ccc(F)cc2)oc2c1ccc1ccccc12 | 
33 | 44.7 | 2.3 | 183 | 4.1 | 9.6 | CN(C)c1cccc(-c2cc(=O)c3ccc4ccccc4c3o2)c1 | 
34 | 7.2 | 10.8 | 25.1 | 3.5 | 37.9 | O=c1cc(-c2ccccn2)oc2c1ccc1ccccc12 | 
35 | 6.2 | 3.6 | 91.5 | 14.8 | 53.1 | O=c1cc(-c2cccc(O)c2)oc2c1ccc1ccccc12 | 
36 | 46.8 | 9.4 | 178 | 3.8 | 35.8 | COc1cccc(-c2cc(=O)c3ccc4ccccc4c3o2)c1 | 
37 | 3.9 | 2 | 36.4 | 9.3 | 18.7 | O=c1cc(-c2ccncc2)oc2c1ccc1ccccc12 | 
